Earlier results as cited in patent publication US20200372978A1 (priority 2019, published 2020).

Target: T1, PPARγ (Homo sapiens, UniProt P37231)
T1 sequence (P37231 1-505): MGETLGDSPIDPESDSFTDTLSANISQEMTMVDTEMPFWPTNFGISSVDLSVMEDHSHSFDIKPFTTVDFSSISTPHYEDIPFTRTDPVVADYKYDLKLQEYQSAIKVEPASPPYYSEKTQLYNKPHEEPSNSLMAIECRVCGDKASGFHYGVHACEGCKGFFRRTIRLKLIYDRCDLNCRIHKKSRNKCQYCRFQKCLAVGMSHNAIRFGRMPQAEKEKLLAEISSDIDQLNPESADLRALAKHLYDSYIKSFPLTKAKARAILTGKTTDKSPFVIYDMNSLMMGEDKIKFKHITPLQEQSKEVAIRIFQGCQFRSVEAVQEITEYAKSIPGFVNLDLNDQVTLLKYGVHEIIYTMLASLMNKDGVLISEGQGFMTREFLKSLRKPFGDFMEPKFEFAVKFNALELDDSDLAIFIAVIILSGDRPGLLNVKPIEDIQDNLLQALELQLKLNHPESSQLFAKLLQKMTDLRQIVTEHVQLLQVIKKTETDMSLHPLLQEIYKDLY
Details: of the maximum effect of ROSI

For `CC(C)COC(=O)c1ccccc1C(=O)OCC(C)C` [DiBP], the maximum effect is listed as 25%.
